We go through 7 compounds from PubChem BioAssay (NCI).

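Briefly, cells in 96-well plates were exposed to five compound concentrations for 48 h, and endpoints were estimated by linear interpolation. The concentration for full growth arrest is given as TGI.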 Bounds are passed on as bounds.

What all share (test): NCI tumour cell line growth inhibition, 48 h
The test system of assay [1] is NCI-H23 lung.
Assay [2] relates to MOLT-4 leukemia.
Assay [3] relates to HT29 colon.
Assay [4] has as its system ACHN renal.
The test system of assay [5] is MCF7 breast.
The subject of assay [6] is OVCAR-8 ovarian.
In assay [7] the test system is A549 NSCLC.
For assay [8], the system named is SW-620 colon.
The subject of assay [9] is HCT-116 colon.
Assay [10] has as its system PC-3 prostate.
In assay [11] the test system is OVCAR-4 ovarian.
The test system of assay [12] is DU-145 prostate.
The test system of assay [13] is CAKI-1 renal.
Assay [14] has as its system HCT-15 colon.
Assay [15] concerns RPMI-8226 leukemia.
Assay [16] concerns M14 melanoma.
Assay [17] deals with SK-MEL-2 melanoma.
In assay [18] the test system is BT-549 breast.
The test system of assay [19] is SN12C renal.
The subject of assay [20] is T-47D breast.

In the case of `COc1cc(Br)cc2cc(-c3cn4c(n3)sc3ccccc34)c(=O)oc12`, the TGI was above 75 µM in [1]; 65.4 µM in assay [2]; above 75 µM in [3]; above 75 µM in assay [4]; above 75 µM in [5]; above 75 µM in assay [6]. In addition, the TGI in assay [7] is above 75 µM; in assay [8], above 75 µM; in [9], above 75 µM; in assay [10], 41.2 µM; in [11], above 75 µM; in assay [12], 48.1 µM. Moreover, the TGI in assay [13] was above 75 µM; in assay [14], above 75 µM; in [15], 49.8 µM; in assay [16], above 75 µM; in [17], 70.6 µM; in assay [18], 70.7 µM. Moreover, in assay [19], the TGI was above 75 µM.

Turning to `c1ccc(CNc2nncc3[nH]cnc23)cc1`, the TGI in assay [1], in assay [2], in [3], in [4], in assay [5] and in [6] was above 100 µM throughout. For the same compound, the TGI in assay [7], in assay [8], in assay [9], in assay [10], in assay [11] and in [13] was above 100 µM in each case. Besides, the TGI in assay [14], in [15], in [16], in assay [17], in assay [18] and in assay [19] was above 100 µM in each case. In addition, in assay [20], the TGI is above 100 µM.

Turning to `CC1(C)OC(=O)N(c2ccccc2)C12C=Cc1cc([N+](=O)[O-])ccc1O2` (stereo unspecified), the TGI is above 100 µM in assay [1]; 84.9 µM in assay [2]; above 100 µM in assay [3]; above 100 µM in [4]; above 100 µM in assay [6]; above 100 µM in assay [7]. Besides, the TGI in [8], in assay [9], in assay [10], in [11], in [12] and in [13] was above 100 µM each time. For the same compound, the TGI in [14], in [15], in [16], in assay [17], in [18] and in assay [19] was above 100 µM each time. For the same compound, in assay [20], the TGI worked out at 86.9 µM.

For the compound `Nc1nc(-[n+]2ccc(-c3ccncc3)cc2)nc(Cl)c1Cl`, the TGI in [1] is 54.9 µM; in [2], 37.2 µM; in [3], above 100 µM; in assay [4], above 100 µM; in assay [5] it was 21.8 µM; in assay [7], above 100 µM. The TGI in [8], in assay [9], in assay [10], in assay [11], in assay [12] and in assay [14] was above 100 µM each time. Besides, the TGI in assay [15] is above 100 µM; in assay [16], above 100 µM; in [17], above 100 µM; in [18], above 100 µM; in [19], 42.5 µM; in assay [20] it was 45.9 µM.

For the compound `CC(=O)O[C@H]1C(=O)[C@@]2(C)[C@H]([C@H](OC(=O)c3ccoc3)[C@]3(O)C[C@H](OC(=O)[C@H](O)[C@@H](NC(=O)c4ccccc4)c4ccccc4)C(C)=C1C3(C)C)[C@]1(OC(C)=O)CO[C@@H]1C[C@@H]2O`, the TGI was above 12.5 µM in assay [1]; above 11.6 µM in [2]; above 12.5 µM in [3]; above 12.5 µM in assay [4]; above 12.5 µM in assay [5]; above 12.5 µM in assay [6]. In addition, the TGI in assay [7] was above 12.5 µM; in [8] it was above 12.5 µM; in assay [9], 0.366 µM; in assay [10], above 12.5 µM; in assay [11], above 12.5 µM; in [12], above 12.5 µM. The TGI is above 12.5 µM in assay [13]; above 12.5 µM in assay [14]; above 12.5 µM in assay [16]; 0.696 µM in assay [17]; above 12.5 µM in assay [18]; above 12.5 µM in assay [19]. Further, in [20], the TGI is above 12.5 µM.

Consider `CC1(C)C[C@@H]2C1CCC1(C)CC2(O)CC[C@H]1O` (stereo partly specified), for which the TGI in assay [1], in assay [2], in assay [3], in assay [4], in assay [5] and in assay [6] was above 100 µM in each case. Moreover, the TGI in assay [7], in [8], in assay [10], in assay [11], in assay [13] and in [14] was above 100 µM each time. The TGI in assay [15], in assay [16], in assay [17], in [18], in assay [19] and in assay [20] was above 100 µM in each case.

As for `CC(C)=CCC(O)[C@](C)(O)[C@H]1[C@H](O)C[C@@]2(C)[C@@H]3CCc4cc(O)c(OC5OC(CO)C(O)C(O)C5O)cc4C3(C)C(=O)C[C@]12C` (stereo partly specified), the TGI in assay [1], in assay [2], in assay [3], in assay [4], in [5] and in [6] was above 100 µM throughout. Further, the TGI in assay [7], in assay [8], in assay [9], in assay [10], in [11] and in [12] was above 100 µM each time. In addition, the TGI in assay [13], in [14], in assay [16], in assay [17], in assay [18] and in assay [19] was above 100 µM each time. The same compound came in with a TGI in [20] above 100 µM.
